Where “and” joins values, the source holds several entries; their conditions need not be identical. Identical values can stand only once. Inconclusive results and toxic doses are left out. Rule for the calls: active = survival T/C of 150% or more; inactive = T/C below 125% in these data.
System: CD2F1 mice, L1210 leukemia ip, survival T/C
Experiment: NCI In Vivo Anticancer Drug Screen. Data for tumor model L1210 Leukemia (intraperitoneal) in CD2F1 (CDF1) mice
Conditions: higher = longer survival
Method in brief: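 In this screen, transplantable tumors were grown in mice given either the compound or its vehicle. Results were expressed as the treated measurement relative to the control measurement.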

Measured: T/C

O=C(O)c1ccccc1.[Pb]
inactive: endpoint: mean survival time, dose: 100.0 mg/kg/injection, schedule: Q01DX001 (ip), vehicle: saline 94 % of control | endpoint: mean survival time, dose: 200.0 mg/kg/injection, schedule: Q01DX001 (ip), vehicle: saline 102 % of control | endpoint: mean survival time, dose: 400.0 mg/kg/injection, schedule: Q01DX001 (ip), vehicle: saline 96 % of control

COc1c(C)c2c(c(O)c1CC(=O)Nc1ccccc1C(=O)O)C(=O)OC2
inactive: endpoint: mean survival time, dose: 100.0 mg/kg/injection, schedule: Q04DX002 (ip), vehicle: saline 96 % of control | endpoint: mean survival time, dose: 200.0 mg/kg/injection, schedule: Q04DX002 (ip), vehicle: saline 100 % of control | endpoint: mean survival time, dose: 400.0 mg/kg/injection, schedule: Q04DX002 (ip), vehicle: saline 91 % of control

CCOc1ccc2c(O)csc2c1
inactive: endpoint: mean survival time, dose: 100.0 mg/kg/injection, schedule: Q04DX003 (ip), vehicle: saline with Tween-80 90 % of control | endpoint: mean survival time, dose: 200.0 mg/kg/injection, schedule: Q04DX003 (ip), vehicle: saline with Tween-80 91 % of control | endpoint: mean survival time, dose: 400.0 mg/kg/injection, schedule: Q04DX003 (ip), vehicle: saline with Tween-80 91 % of control

COc1ccc(COC(=O)Nc2cccc3ccccc23)cc1
inactive: endpoint: mean survival time, dose: 75.0 mg/kg/injection, schedule: Q04DX002 (ip), vehicle: saline with Tween-80 104 % of control | endpoint: mean survival time, dose: 150.0 mg/kg/injection, schedule: Q04DX002 (ip), vehicle: saline with Tween-80 104 % of control | endpoint: mean survival time, dose: 300.0 mg/kg/injection, schedule: Q04DX002 (ip), vehicle: saline with Tween-80 100 % of control

Cc1ccc(S(=O)(=O)N/N=C/c2ccccc2)cc1
inactive: endpoint: mean survival time, dose: 50.0 mg/kg/injection, schedule: Q01DX009 (ip), vehicle: Klucel (hydroxypropylcellulose) (HPC) 95 % of control | endpoint: mean survival time, dose: 100.0 mg/kg/injection, schedule: Q01DX009 (ip), vehicle: Klucel (hydroxypropylcellulose) (HPC) 98 % of control | endpoint: mean survival time, dose: 200.0 mg/kg/injection, schedule: Q01DX009 (ip), vehicle: Klucel (hydroxypropylcellulose) (HPC) 101 % of control | endpoint: mean survival time, dose: 400.0 mg/kg/injection, schedule: Q01DX009 (ip), vehicle: Klucel (hydroxypropylcellulose) (HPC) 91 % of control

Cc1cc(C(O)CNCCn2cnc3c2c(=O)n(C)c(=O)n3C)ccc1O (stereo not drawn)
inactive: endpoint: mean survival time, dose: 12.5 mg/kg/injection, schedule: Q01DX005 (ip), vehicle: water 103 % of control | endpoint: mean survival time, dose: 25.0 mg/kg/injection, schedule: Q01DX005 (ip), vehicle: water 100 % of control | endpoint: mean survival time, dose: 50.0 mg/kg/injection, schedule: Q01DX005 (ip), vehicle: water 97 % of control | endpoint: mean survival time, dose: 100.0 mg/kg/injection, schedule: Q01DX005 (ip), vehicle: water 100 % of control | endpoint: mean survival time, dose: 200.0 mg/kg/injection, schedule: Q01DX005 (ip), vehicle: water 100 % of control

O=C(O)C[Se](=O)O
inactive: endpoint: mean survival time, dose: 12.5 mg/kg/injection, schedule: Q01DX001 (ip), vehicle: saline with Tween-80 91 % of control | endpoint: mean survival time, dose: 25.0 mg/kg/injection, schedule: Q01DX001 (ip), vehicle: saline with Tween-80 91 % of control

NC(N)=NCCNC(=O)C1CCC(N)C1 (stereo not drawn)
inactive: endpoint: mean survival time, dose: 0.63 mg/kg/injection, schedule: Q01DX009 (ip), vehicle: saline 96 % of control | endpoint: mean survival time, dose: 1.25 mg/kg/injection, schedule: Q01DX009 (ip), vehicle: saline 96 % of control

COC(=O)[CH](C[N+](=O)[O-])[Hg][Cl] (stereo not drawn)
inactive: endpoint: mean survival time, dose: 6.25 mg/kg/injection, schedule: Q01DX009 (ip), vehicle: saline with Tween-80 97 % of control | endpoint: mean survival time, dose: 12.5 mg/kg/injection, schedule: Q04DX003 (ip), vehicle: saline 94 % of control

C(N=Nc1ccccc1)=C(c1ccccc1)c1ccccc1
inactive: endpoint: mean survival time, dose: 100.0 mg/kg/injection, schedule: Q04DX002 (ip), vehicle: other 107 % of control | endpoint: mean survival time, dose: 200.0 mg/kg/injection, schedule: Q04DX002 (ip), vehicle: other 103 % of control | endpoint: mean survival time, dose: 400.0 mg/kg/injection, schedule: Q04DX002 (ip), vehicle: other 103 % of control

CC1SCCS1
inactive: endpoint: mean survival time, dose: 100.0 mg/kg/injection, schedule: Q01DX001 (ip), vehicle: saline with Tween-80 95 % of control | endpoint: mean survival time, dose: 200.0 mg/kg/injection, schedule: Q01DX001 (ip), vehicle: saline with Tween-80 105 % of control | endpoint: mean survival time, dose: 400.0 mg/kg/injection, schedule: Q01DX001 (ip), vehicle: saline with Tween-80 100 % of control

CC(C)=NNC(=O)CC(=O)NN=C(C)C
inactive: endpoint: mean survival time, dose: 100.0 mg/kg/injection, schedule: Q01DX009 (ip), vehicle: saline sonified 100 % of control | endpoint: mean survival time, dose: 180.0 mg/kg/injection, schedule: Q01DX009 (ip), vehicle: saline with Tween-80 100 % of control | endpoint: mean survival time, dose: 200.0 mg/kg/injection, schedule: Q01DX009 (ip), vehicle: saline sonified 102 % of control | endpoint: mean survival time, dose: 266.0 mg/kg/injection, schedule: Q01DX009 (ip), vehicle: saline with Tween-80 100 % of control | endpoint: mean survival time, dose: 400.0 mg/kg/injection, schedule: Q01DX009 (ip), vehicle: saline with Tween-80 110 % of control | endpoint: mean survival time, dose: 600.0 mg/kg/injection, schedule: Q01DX009 (ip), vehicle: saline with Tween-80 122 % of control

BrCc1c2ccccc2c(CBr)c2c1ccc1ccccc12
inactive: endpoint: mean survival time, dose: 25.0 mg/kg/injection, schedule: Q04DX002 (ip), vehicle: carboxymethylcellulose (CMC) 105 % of control | endpoint: mean survival time, dose: 50.0 mg/kg/injection, schedule: Q04DX002 (ip), vehicle: carboxymethylcellulose (CMC) 117 % of control | endpoint: mean survival time, dose: 100.0 mg/kg/injection, schedule: Q04DX002 (ip), vehicle: Klucel (hydroxypropylcellulose) (HPC) 97 % of control | endpoint: mean survival time, dose: 100.0 mg/kg/injection, schedule: Q04DX002 (ip), vehicle: carboxymethylcellulose (CMC) 113 % of control | endpoint: mean survival time, dose: 200.0 mg/kg/injection, schedule: Q04DX002 (ip), vehicle: Klucel (hydroxypropylcellulose) (HPC) 117 % of control

COc1ccc(Cc2ccc(OC)c(OC)c2)cc1OC
inactive: endpoint: median survival time, dose: 25.0 mg/kg/injection, schedule: Q01DX005 (ip), vehicle: saline with Tween-80 96 % of control | endpoint: median survival time, dose: 25.0 mg/kg/injection, schedule: Q04DX003 (ip), vehicle: saline 100 % of control | endpoint: median survival time, dose: 50.0 mg/kg/injection, schedule: Q01DX005 (ip), vehicle: saline with Tween-80 98 % of control | endpoint: median survival time, dose: 50.0 mg/kg/injection, schedule: Q04DX003 (ip), vehicle: saline 100 % of control | endpoint: median survival time, dose: 100.0 mg/kg/injection, schedule: Q01DX005 (ip), vehicle: saline with Tween-80 98 % of control | endpoint: median survival time, dose: 100.0 mg/kg/injection, schedule: Q04DX003 (ip), vehicle: saline 100 % of control | endpoint: median survival time, dose: 200.0 mg/kg/injection, schedule: Q01DX005 (ip), vehicle: saline with Tween-80 97 % of control | endpoint: median survival time, dose: 200.0 mg/kg/injection, schedule: Q04DX003 (ip), vehicle: saline 106 % of control | endpoint: median survival time, dose: 400.0 mg/kg/injection, schedule: Q01DX005 (ip), vehicle: saline with Tween-80 95 % of control | endpoint: median survival time, dose: 400.0 mg/kg/injection, schedule: Q04DX003 (ip), vehicle: saline 100 % of control

CC1(C)OC(=O)N(CO)C1=O
inactive: endpoint: mean survival time, dose: 12.5 mg/kg/injection, schedule: Q01DX009 (ip), vehicle: saline 100 % of control and 103 % of control | endpoint: mean survival time, dose: 25.0 mg/kg/injection, schedule: Q01DX009 (ip), vehicle: saline 97 % of control and 102 % of control | endpoint: mean survival time, dose: 50.0 mg/kg/injection, schedule: Q01DX009 (ip), vehicle: saline 100 % of control and 102 % of control | endpoint: mean survival time, dose: 100.0 mg/kg/injection, schedule: Q01DX009 (ip), vehicle: saline 114 % of control and 111 % of control | endpoint: mean survival time, dose: 200.0 mg/kg/injection, schedule: Q01DX009 (ip), vehicle: saline 120 % of control and 111 % of control | endpoint: mean survival time, dose: 400.0 mg/kg/injection, schedule: Q01DX009 (ip), vehicle: saline 91 % of control and 97 % of control

S=c1cc[nH]c2ccccc12
inactive: endpoint: mean survival time, dose: 12.5 mg/kg/injection, schedule: Q01DX009 (ip), vehicle: other 104 % of control | endpoint: mean survival time, dose: 25.0 mg/kg/injection, schedule: Q01DX009 (ip), vehicle: other 102 % of control | endpoint: mean survival time, dose: 50.0 mg/kg/injection, schedule: Q01DX009 (ip), vehicle: other 104 % of control

O=C1CCC2(C=C(Br)C(=O)C(Br)=C2)O1
inactive: endpoint: mean survival time, dose: 5.0 mg/kg/injection, schedule: Q01DX009 (ip), vehicle: saline with Tween-80 98 % of control | endpoint: mean survival time, dose: 5.0 mg/kg/injection, schedule: Q04DX003 (ip), vehicle: saline with Tween-80 103 % of control | endpoint: mean survival time, dose: 10.0 mg/kg/injection, schedule: Q04DX003 (ip), vehicle: saline with Tween-80 105 % of control | endpoint: mean survival time, dose: 20.0 mg/kg/injection, schedule: Q04DX003 (ip), vehicle: saline with Tween-80 101 % of control

CC(=O)OCC(=O)[C@@]12OC(C)(C)O[C@@H]1C[C@H]1[C@@H]3CC(C=O)=C4C=C(OCCCl)CC[C@]4(C)[C@@]3(F)[C@@H](O)C[C@@]12C
inactive: endpoint: mean survival time, dose: 100.0 mg/kg/injection, schedule: Q04DX003 (ip), vehicle: acetone 103 % of control | endpoint: mean survival time, dose: 200.0 mg/kg/injection, schedule: Q04DX003 (ip), vehicle: acetone 105 % of control | endpoint: mean survival time, dose: 400.0 mg/kg/injection, schedule: Q04DX003 (ip), vehicle: acetone 102 % of control

Cc1ccc([N+](=O)[O-])c(P(=O)(O)O)c1
inactive: endpoint: mean survival time, dose: 25.0 mg/kg/injection, schedule: Q01DX009 (ip), vehicle: saline with Tween-80 91 % of control | endpoint: mean survival time, dose: 50.0 mg/kg/injection, schedule: Q01DX009 (ip), vehicle: saline with Tween-80 88 % of control | endpoint: mean survival time, dose: 100.0 mg/kg/injection, schedule: Q01DX009 (ip), vehicle: saline with Tween-80 87 % of control

From PubChem BioAssay AID256 (DTP/NCI, 2004)
